{"source": "patent US20250108119A1", "about": "“NOVEL STEROID PAYLOADS, STEROID LINKERS, ADCs CONTAINING AND USE THEREOF” (IMMUNEXT, INC., priority 2021, published 2025)", "key": {"[1]": {"test_system": "peritoneal resident macrophages (PRM)", "test": "In vivo treatment/ex vivo PRM activation, TNFα and IL-6 in supernatant", "design": "species or system hVISTA mice"}, "human PBMC": {"test_system": "human PBMC", "test": "Cytokine production (IL-1β, IL-6) at 24 hr by human PBMC incubated with 1 ng/mL LPS", "assay_type": "cell-based", "conditions": "anti-VISTA conjugates, serial dilutions with respect to total ADC concentration (20-0.003 μg/mL), equivalent or reduced DAR", "in_short": "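Human PBMC were stimulated with 1 ng/mL LPS together with serial dilutions of steroid payloads or glucocorticoid conjugates, spanning up to 8,000 nM down to 0.032 nM depending on the series. IL-1β and IL-6 were measured at 24 hr from technical duplicates, with 1-2 donors. Values above the ULOQ were extrapolated.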"}, "FKBP5": {"test_system": "FKBP5", "test": "FKBP5 transcription in peritoneal resident macrophages (PRM) and spleen cells after in vivo treatment", "design": "species or system hVISTA mice", "conditions": "linker payloads as anti-VISTA conjugates"}, "[2]": {"conditions": "linker/payloads as anti-VISTA conjugates"}}, "data": [{"compound": "C[C@]12C=CC(=O)C=C1CC[C@@H]1[C@@H]2[C@@H](O)C[C@@]2(C)[C@H]1C[C@H]1O[C@@H](c3ccc(CC4CC5(C4)CC(NC(=O)[C@H](CCC(=O)O)NC(=O)CNC(=O)CBr)C5)cc3)O[C@]12C(=O)CO", "note": "(stereo partly drawn) [INX V, (S)-4-(2-(2-bromoacetamido)acetamido)-5-((6-(4-((6aR,6bS,7S,8aS,8bS,10R,11aR,12aS,12bS)-7-hydroxy-8b-(2-hydroxyacetyl)-6a,8a-dimethyl-4-oxo-2,4,6a,6b,7,8,8a,8b,11a,12,12a,12b-dodecahydro-1H-naphtho[2′,1′:4,5]indeno[1,2-d][1,3]dioxol-10-yl)benzyl)spiro[3.3]heptan-2-yl)amino)-5-oxopentanoic acid]", "values": [{"measurement": "preventing ex vivo induction of TNFα and IL-6 in PRM", "setting": "[1]; Experiment 9: linker payloads as conjugates, 7 days post 0.2 mg/Kg of GC payload, supernatant 24h", "result": "remarkable long-term potency in controlling cytokine responses"}, {"measurement": "controlling cytokine response in PRM when dosed 14 days early (conclusions)", "setting": "[1]; [2]", "result": "significant potency in controlling cytokine response in PRM when dosed 14 days early"}, {"measurement": "potency in PRM cytokine model when dosed 7 days early (conclusions)", "setting": "[1]; [2]", "result": "remarkably more potent than payloads INX P and INX R when dosed 7 days early"}, {"measurement": "potency in reducing IL-1β production", "setting": "human PBMC", "result": "enhanced potency"}, {"measurement": "FKBP5 induction when dosed 14 days early (conclusions)", "setting": "FKBP5", "result": "still display significant potency when dosed 14 days early in regard to FKBP5 induction"}]}]}
